Data: US4426519A, “7-(2-Amino-4-thiazolyl)-acetamido cephalosporanic acids” (Roussel Uclaf, priority 1979, dated 1984)
Values after ≈ are worked out from the molar mass of the structure shown. Where a name gives a salt, the structure may show the parent alone. Read-outs that look alike come from different tables or passages of the source.

Tests used:
Experiment in all cases: MIC, dilution in liquid medium
Assay type in all cases: cell-based
[1] = system: Escherichia Coli sensitive Tetracycline ATCC 9 637
Protocol: (§1) The method used was a dilution of a liquid medium where a series of tubes received the same quantity of a sterile nutritive media and increasing doses of the test compounds were placed therein. Then each tube was seeded with a bacterial strain and was incubated for 24 to 48 hours at 37° C. in an oven. The increasing inhibition was determined by transillulumination to determine the minimum inhibiting concentration (MIC in μg/ml) and the results are reported in the following Tables.

Providencia Du 48 = system: Providencia Du 48
Protocol: as §1

[2] = system: Bacillus subtilis ATCC 6 633
Protocol: as §1

[3] = system: Salmonella typhimurium 420; settings: Salmonella enterica
Protocol: as §1

[4] = system: Klebsiella pneumoniae 2 536 Resistant Gentamycine
Protocol: as §1

[5] = system: Klebsiella pneumoniae Exp. 52 145; settings: read-out: MIC
Protocol: as §1

[6] = system: Staphylococcus aureus exp.n°54 146
Protocol: as §1

[7] = system: Escherichia Coli Exp. TO26 B6
Protocol: as §1

[8] = system: Staphylococcus aureus UC 1 128 Pen-resistant
Protocol: as §1

[9] = system: Proteus mirabilis (indol-) A 235
Protocol: as §1

[10] = system: Serratia Resistant Gentamycine 2 532
Protocol: as §1

[11] = system: Escherichia Coli Resistant Gentamycine, Tobramycine R 55 123 D; settings: read-out: MIC
Protocol: as §1

[12] = system: Staphylococcus aureus ATCC 6 538 Pen Sensitive
Protocol: as §1

[13] = system: Streptococcus pyogenes A 561
Protocol: as §1

Enterobacter cloacae 681 = system: Enterobacter cloacae 681
Protocol: as §1

[14] = system: Escherichia Coli Resistant Tetracycline ATCC 11 303
Protocol: as §1

[15] = system: Streptococcus faecalis 5 432; settings: Enterococcus faecalis, 5432, 24 h
Protocol: as §1

SMILES	MIC ([1]; ATCC9, 24 h, read-out: MIC)	MIC ([2]; ATCC6, 24 h, read-out: MIC)	MIC ([2]; ATCC6, 48 h)	MIC ([3]; 24 h, read-out: MIC)	MIC ([3]; 48 h, read-out: MIC)	MIC ([4]; 24 h, read-out: MIC)	MIC ([4]; 48 h)	MIC ([5]; EXP.52145, 24 h)	MIC ([5]; EXP.52145, 48 h)	MIC ([7]; 24 h)	MIC ([7]; 48 h)	MIC ([9]; 24 h)	MIC ([9]; 48 h)	MIC ([10]; 48 h, read-out: MIC)	MIC ([11]; 24 h)	MIC ([11]; 48 h)	MIC ([13]; A561, 24 h)	MIC ([13]; A561, 48 h)	MIC ([14]; ATCC11, 24 h)	MIC ([14]; ATCC11, 48 h)	also measured
[N-]=[N+]=NCC1=C(C(=O)O)N2C(=O)C(NC(=O)/C(=N\OCCSC(=N)N)c3csc(N)n3)C2SC1 (stereo not drawn) [Example 5, Internal salt of syn isomer of 3-azidomethyl-7-[2-(2-amino-4-thiazolyl)-2-(2-aminoiminomethylthioethoxyimino)-acetamido]-ceph-3-eme-4-carboxylic acid]	2 µg/mL	2 µg/mL	3 µg/mL	1 µg/mL	1 µg/mL	2 µg/mL	3 µg/mL	1 µg/mL	1 µg/mL	0.5 µg/mL	0.5 µg/mL	0.2 µg/mL	0.2 µg/mL	1 µg/mL	1 µg/mL	1 µg/mL	< 0.02 µg/mL	0.05 µg/mL	0.2 µg/mL	0.2 µg/mL	MIC ([1]; ATCC9, 48 h, read-out: MIC): 2 µg/mL; MIC (Providencia Du 48; DU48, 24 h, read-out: MIC): 10 µg/mL; MIC (Providencia Du 48; DU48, 48 h, read-out: MIC): 10 µg/mL; MIC ([6]; 24 h, read-out: MIC): 1 µg/mL; MIC ([6]; 48 h, read-out: MIC): 2 µg/mL; MIC ([8]; UC1, 24 h, read-out: MIC): 1 µg/mL; MIC ([8]; UC1, 48 h, read-out: MIC): 2 µg/mL; MIC ([10]; 24 h, read-out: MIC): 1 µg/mL; MIC ([12]; ATCC6, 24 h, read-out: MIC): 1 µg/mL; MIC ([12]; ATCC6, 48 h, read-out: MIC): 1 µg/mL; MIC (Enterobacter cloacae 681; Enterobacter cloacae, 681, 24 h): 3 µg/mL; MIC (Enterobacter cloacae 681; Enterobacter cloacae, 681, 48 h): 3 µg/mL
CC(=O)OCC1=C(C(=O)O)N2C(=O)C(NC(=O)/C(=N\OC(F)F)c3csc(N)n3)C2SC1 (stereo not drawn) [Example 9, Syn isomer of 3-acetoxymethyl-7-[2-(2-amino-4-thiazolyl)-2-difluoromethoxyimino-acetamido]-ceph-3-eme-4-carboxylic acid]	0.5 µg/mL (≈ 1.02 µM)		5 µg/mL (≈ 10.2 µM)	0.5 µg/mL (≈ 1.02 µM)	0.5 µg/mL (≈ 1.02 µM)	0.5 µg/mL (≈ 1.02 µM)		0.05 µg/mL (≈ 0.102 µM)	0.05 µg/mL (≈ 0.102 µM)			0.05 µg/mL (≈ 0.102 µM)	0.05 µg/mL (≈ 0.102 µM)	0.5 µg/mL (≈ 1.02 µM)	0.2 µg/mL (≈ 0.407 µM)	0.2 µg/mL (≈ 0.407 µM)	0.05 µg/mL (≈ 0.102 µM)	0.05 µg/mL (≈ 0.102 µM)	0.05 µg/mL (≈ 0.102 µM)	0.1 µg/mL (≈ 0.203 µM)	MIC ([1]; ATCC9, 48 h): 1 µg/mL (≈ 2.03 µM); MIC (Providencia Du 48; DU48, 24 h): 2 µg/mL (≈ 4.07 µM); MIC (Providencia Du 48; DU48, 48 h): 2 µg/mL (≈ 4.07 µM); MIC ([2]; ATCC6, 24 h): 1 µg/mL (≈ 2.03 µM); MIC ([4]; 48 h, read-out: MIC): 0.5 µg/mL (≈ 1.02 µM); MIC [15]: 5 µg/mL (≈ 10.2 µM); MIC ([6]; 24 h): 1 µg/mL (≈ 2.03 µM); MIC ([6]; 48 h): 2 µg/mL (≈ 4.07 µM); MIC ([8]; UC1, 24 h): 1 µg/mL (≈ 2.03 µM); MIC ([8]; UC1, 48 h): 2 µg/mL (≈ 4.07 µM); MIC ([10]; 24 h, read-out: MIC): 0.5 µg/mL (≈ 1.02 µM); MIC ([12]; ATCC6, 24 h): 1 µg/mL (≈ 2.03 µM); MIC ([12]; ATCC6, 48 h): 1 µg/mL (≈ 2.03 µM)
Cc1nnc(SCC2=C(C(=O)O)N3C(=O)C(NC(=O)/C(=N\OCCSC(=N)N)c4csc(N)n4)C3SC2)s1 (stereo not drawn) [Example 6, Internal salt of syn isomer of 3-[(2-methyl-1,3,4-thiadiazol-5-yl)-thiomethyl]-7-[2-(2-amino-4-thiazolyl)-2-(2-aminoiminomethylthioethoxyimino)-acetamido]-ceph-3-eme-4-carboxylic acid]	5 µg/mL	1 µg/mL	2 µg/mL		3 µg/mL	5 µg/mL	5 µg/mL	1 µg/mL	1 µg/mL	2 µg/mL	2 µg/mL	1 µg/mL	1 µg/mL	3 µg/mL	1 µg/mL	1 µg/mL	0.05 µg/mL	0.05 µg/mL	0.1 µg/mL	0.1 µg/mL	MIC ([1]; ATCC9, 48 h): 5 µg/mL; MIC ([3]; 24 h): 2 µg/mL; MIC ([6]; 24 h): 2 µg/mL; MIC ([6]; 48 h): 2 µg/mL; MIC ([8]; UC1, 24 h): 2 µg/mL; MIC ([8]; UC1, 48 h): 2 µg/mL; MIC ([10]; 24 h): 2 µg/mL; MIC ([12]; ATCC6, 24 h, read-out: MIC): 1 µg/mL; MIC ([12]; ATCC6, 48 h): 2 µg/mL; MIC (Enterobacter cloacae 681; Enterobacter cloacae, 681, 24 h, read-out: MIC): 10 µg/mL; MIC (Enterobacter cloacae 681; Enterobacter cloacae, 681, 48 h, read-out: MIC): 10 µg/mL
